Columns and labels:
Assay in all cases: Test B pre-/postemergence
Format in all cases: in vivo
Set-up in all cases: key: 0 is no effect; 10 is complete control
[1] = tested on: bedstraw (Galium aparine)
Summary of the method: (§1)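 Seeds were planted and sprayed preemergence, while plants at 2 to 18 cm (1- to 4-leaf stage) were sprayed postemergence at the same time, with test chemical in a non-phytotoxic solvent mixture containing surfactant. After twelve to sixteen days in a greenhouse, injury was rated visually against untreated controls on a 0–10 scale.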

[2] = tested on: blackgrass (Alopecurus myosuroides)
Summary of the method: as §1

[3] = tested on: broadleaf signalgrass (Brachiaria decumbens)
Summary of the method: as §1

[4] = tested on: cocklebur (Xanthium strumarium)
Summary of the method: as §1

corn (Zea mays) = tested on: corn (Zea mays)
Summary of the method: as §1

[5] = tested on: crabgrass (Digitaria sanguinalis)
Summary of the method: as §1

[6] = tested on: giant foxtail (Setaria faberii)
Summary of the method: as §1

[7] = tested on: momingglory (Ipomoea hederacea)
Summary of the method: as §1

[8] = tested on: pigweed (Amaranthus retroflexus)
Summary of the method: as §1

[9] = tested on: purple nutsedge (Cyperus rotundus)
Summary of the method: as §1

[10] = tested on: sugar beet (Beta vulgaris)
Summary of the method: as §1

[11] = tested on: velvetleaf (Abutilon theophrasti)
Summary of the method: as §1

[12] = tested on: wheat (Triticum aestivum)
Summary of the method: as §1

wild oat (Avena fatua) = tested on: wild oat (Avena fatua)
Summary of the method: as §1

Cc1cnc(-n2ccc(C(F)(F)F)n2)nc1Cn1ccc(C(F)(F)F)n1 [Compound 52]
Plant response rating, Bedstraw ([1]; Rate 62 g/ha, Postemergence): 9 | Bedstraw plant response rating ([1]; Rate 62 g/ha, Preemergence): 7 | Bedstraw plant response rating ([1]; Rate 125 g/ha, Postemergence): 10 | Plant response rating, Bedstraw ([1]; Rate 125 g/ha, Preemergence): 8 | Plant response rating, Bedstraw ([1]; Rate 250 g/ha, Postemergence): 10 | Plant response rating, Bedstraw ([1]; Rate 250 g/ha, Preemergence): 9 | Plant response rating, Bedstraw ([1]; Rate 500 g/ha, Postemergence): 10 | Plant response rating, Bedstraw ([1]; Rate 500 g/ha, Preemergence): 10 | Plant response rating, Blackgrass ([2]; Rate 62 g/ha, Postemergence): 5 | Blackgrass plant response rating ([2]; Rate 62 g/ha, Preemergence): 5 | Blackgrass plant response rating ([2]; Rate 125 g/ha, Postemergence): 9 | Plant response rating, Blackgrass ([2]; Rate 125 g/ha, Preemergence): 8 | Plant response rating, Blackgrass ([2]; Rate 250 g/ha, Postemergence): 9 | Plant response rating, Blackgrass ([2]; Rate 250 g/ha, Preemergence): 10 | Plant response rating, Blackgrass ([2]; Rate 500 g/ha, Postemergence): 9 | Plant response rating, Blackgrass ([2]; Rate 500 g/ha, Preemergence): 10 | Plant response rating, B. signalgrass ([3]; Rate 62 g/ha, Postemergence): 4 | B. signalgrass plant response rating ([3]; Rate 62 g/ha, Preemergence): 8 | B. signalgrass plant response rating ([3]; Rate 125 g/ha, Postemergence): 9 | Plant response rating, B. signalgrass ([3]; Rate 125 g/ha, Preemergence): 9 | Plant response rating, B. signalgrass ([3]; Rate 250 g/ha, Postemergence): 9 | Plant response rating, B. signalgrass ([3]; Rate 250 g/ha, Preemergence): 10 | Plant response rating, B. signalgrass ([3]; Rate 500 g/ha, Postemergence): 9 | Plant response rating, B. signalgrass ([3]; Rate 500 g/ha, Preemergence): 10 | Plant response rating, Cocklebur ([4]; Rate 62 g/ha, Postemergence): 8 | Cocklebur plant response rating ([4]; Rate 62 g/ha, Preemergence): 1 | Cocklebur plant response rating ([4]; Rate 125 g/ha, Postemergence): 8 | Plant response rating, Cocklebur ([4]; Rate 250 g/ha, Postemergence): 9 | Plant response rating, Cocklebur ([4]; Rate 250 g/ha, Preemergence): 7 | Plant response rating, Cocklebur ([4]; Rate 500 g/ha, Postemergence): 9 | Plant response rating, Cocklebur ([4]; Rate 500 g/ha, Preemergence): 10 | Plant response rating, Corn (corn (Zea mays); Rate 62 g/ha, Postemergence): 4 | Corn plant response rating (corn (Zea mays); Rate 62 g/ha, Preemergence): 3 | Corn plant response rating (corn (Zea mays); Rate 125 g/ha, Postemergence): 5 | Plant response rating, Corn (corn (Zea mays); Rate 125 g/ha, Preemergence): 3 | Plant response rating, Corn (corn (Zea mays); Rate 250 g/ha, Postemergence): 6 | Plant response rating, Corn (corn (Zea mays); Rate 250 g/ha, Preemergence): 7 | Plant response rating, Corn (corn (Zea mays); Rate 500 g/ha, Postemergence): 7 | Plant response rating, Corn (corn (Zea mays); Rate 500 g/ha, Preemergence): 8 | Plant response rating, Crabgrass ([5]; Rate 62 g/ha, Postemergence): 6 | Crabgrass plant response rating ([5]; Rate 62 g/ha, Preemergence): 9 | Crabgrass plant response rating ([5]; Rate 125 g/ha, Postemergence): 8 | Plant response rating, Crabgrass ([5]; Rate 125 g/ha, Preemergence): 10 | Plant response rating, Crabgrass ([5]; Rate 250 g/ha, Postemergence): 9 | Plant response rating, Crabgrass ([5]; Rate 250 g/ha, Preemergence): 10 | Plant response rating, Crabgrass ([5]; Rate 500 g/ha, Postemergence): 9 | Plant response rating, Crabgrass ([5]; Rate 500 g/ha, Preemergence): 10 | Plant response rating, Giant foxtail ([6]; Rate 62 g/ha, Postemergence): 7 | Giant foxtail plant response rating ([6]; Rate 62 g/ha, Preemergence): 9 | Giant foxtail plant response rating ([6]; Rate 125 g/ha, Postemergence): 8 | Plant response rating, Giant foxtail ([6]; Rate 125 g/ha, Preemergence): 9 | Plant response rating, Giant foxtail ([6]; Rate 250 g/ha, Postemergence): 9 | Plant response rating, Giant foxtail ([6]; Rate 250 g/ha, Preemergence): 10 | Plant response rating, Giant foxtail ([6]; Rate 500 g/ha, Postemergence): 9 | Plant response rating, Giant foxtail ([6]; Rate 500 g/ha, Preemergence): 10 | Plant response rating, Morningglory ([7]; Rate 62 g/ha, Postemergence): 10 | Morningglory plant response rating ([7]; Rate 62 g/ha, Preemergence): 9 | Morningglory plant response rating ([7]; Rate 125 g/ha, Postemergence): 10 | Plant response rating, Morningglory ([7]; Rate 125 g/ha, Preemergence): 10 | Plant response rating, Morningglory ([7]; Rate 250 g/ha, Postemergence): 10 | Plant response rating, Morningglory ([7]; Rate 250 g/ha, Preemergence): 10 | Plant response rating, Morningglory ([7]; Rate 500 g/ha, Postemergence): 10 | Plant response rating, Morningglory ([7]; Rate 500 g/ha, Preemergence): 10 | Plant response rating, Redroot pigweed ([8]; Rate 62 g/ha, Postemergence): 9 | Redroot pigweed plant response rating ([8]; Rate 62 g/ha, Preemergence): 10 | Redroot pigweed plant response rating ([8]; Rate 125 g/ha, Postemergence): 10 | Plant response rating, Redroot pigweed ([8]; Rate 125 g/ha, Preemergence): 10 | Plant response rating, Redroot pigweed ([8]; Rate 250 g/ha, Postemergence): 10 | Plant response rating, Redroot pigweed ([8]; Rate 250 g/ha, Preemergence): 10 | Plant response rating, Redroot pigweed ([8]; Rate 500 g/ha, Postemergence): 10 | Plant response rating, Redroot pigweed ([8]; Rate 500 g/ha, Preemergence): 10 | Plant response rating, Nutsedge ([9]; Rate 62 g/ha, Postemergence): 1 | Nutsedge plant response rating ([9]; Rate 62 g/ha, Preemergence): 0 | Nutsedge plant response rating ([9]; Rate 125 g/ha, Postemergence): 3 | Plant response rating, Nutsedge ([9]; Rate 500 g/ha, Postemergence): 7 | Plant response rating, Nutsedge ([9]; Rate 500 g/ha, Preemergence): 1 | Plant response rating, Sugarbeets ([10]; Rate 62 g/ha, Postemergence): 9 | Sugarbeets plant response rating ([10]; Rate 62 g/ha, Preemergence): 10 | Sugarbeets plant response rating ([10]; Rate 125 g/ha, Postemergence): 10 | Plant response rating, Sugarbeets ([10]; Rate 125 g/ha, Preemergence): 10 | Plant response rating, Sugarbeets ([10]; Rate 250 g/ha, Postemergence): 10 | Plant response rating, Sugarbeets ([10]; Rate 250 g/ha, Preemergence): 10 | Plant response rating, Sugarbeets ([10]; Rate 500 g/ha, Postemergence): 10 | Plant response rating, Sugarbeets ([10]; Rate 500 g/ha, Preemergence): 10 | Plant response rating, Velvetleaf ([11]; Rate 62 g/ha, Postemergence): 8 | Velvetleaf plant response rating ([11]; Rate 62 g/ha, Preemergence): 10 | Velvetleaf plant response rating ([11]; Rate 125 g/ha, Postemergence): 8 | Plant response rating, Velvetleaf ([11]; Rate 125 g/ha, Preemergence): 10 | Plant response rating, Velvetleaf ([11]; Rate 250 g/ha, Postemergence): 8 | Plant response rating, Velvetleaf ([11]; Rate 250 g/ha, Preemergence): 10 | Plant response rating, Velvetleaf ([11]; Rate 500 g/ha, Postemergence): 9 | Plant response rating, Velvetleaf ([11]; Rate 500 g/ha, Preemergence): 10 | Wheat plant response rating ([12]; Rate 62 g/ha, Postemergence): 4 | Wheat plant response rating ([12]; Rate 62 g/ha, Preemergence): 2 | Wheat plant response rating ([12]; Rate 125 g/ha, Postemergence): 7 | Plant response rating, Wheat ([12]; Rate 125 g/ha, Preemergence): 2 | Plant response rating, Wheat ([12]; Rate 250 g/ha, Postemergence): 7 | Plant response rating, Wheat ([12]; Rate 250 g/ha, Preemergence): 3 | Plant response rating, Wheat ([12]; Rate 500 g/ha, Postemergence): 8 | Plant response rating, Wheat ([12]; Rate 500 g/ha, Preemergence): 6 | Wild oats plant response rating (wild oat (Avena fatua); Rate 62 g/ha, Postemergence): 6 | Wild oats plant response rating (wild oat (Avena fatua); Rate 62 g/ha, Preemergence): 3 | Wild oats plant response rating (wild oat (Avena fatua); Rate 125 g/ha, Postemergence): 8 | Plant response rating, Wild oats (wild oat (Avena fatua); Rate 125 g/ha, Preemergence): 5 | Plant response rating, Wild oats (wild oat (Avena fatua); Rate 250 g/ha, Postemergence): 8 | Plant response rating, Wild oats (wild oat (Avena fatua); Rate 250 g/ha, Preemergence): 9 | Plant response rating, Wild oats (wild oat (Avena fatua); Rate 500 g/ha, Postemergence): 9 | Plant response rating, Wild oats (wild oat (Avena fatua); Rate 500 g/ha, Preemergence): 10

— patent publication US6525001B1, “Substituted pyrimidine and pyridine herbicides” (Mid-American Commercialization Corporation, priority 1997, dated 2003)
